Data set [1] is described as follows: pMHC thermal stability by circular dichroism. Type of data set: physicochemical. Conditions: CD thermal denaturation at 218 nm, PBS, ∼3 μM, 0.1-cm cell, two-state trimer-to-monomer fit. How it is done: Thermal stability of the HLA-A*0201-peptide complexes was assessed by circular dichroism spectroscopy, monitoring the change in ellipticities at 218 nm upon heating as described ([31]). Briefly, samples were prepared in PBS at a concentration of ∼3 μM and measured in 0.1-cm quartz cells. Melting curves were analyzed assuming a two-state trimer-to-monomer transition from the native to unfolded conformation and fitted as described ([43]). As all protein complexes aggregated to various degrees upon unfolding, the ellipticity of the unfolded state was set as a constant of −1.35 M^−1 cm^−1 ([44]).

The target in data set [2] is ILA1 TCR. Conditions: SPR, cited from earlier work; for Kd: equilibrium binding. (In general: In SPR one partner is held on a chip, and binding of the other changes the refractive index at the surface.)
For data set [3], the system named is ILA1 TCR. Briefly: Surface plasmon resonance binding of ILA1 TCR to HLA-A*0201-ILA peptide variants. The arrangement: species or system human. The note with it: 25 °C; for Kd: equilibrium binding, SPR, serial dilutions in duplicate, three independent experiments. How it is done: Binding analysis was performed in duplicate using a BIAcoreT200^TM equipped with a CM5 sensor chip as described previously ([45]). Approximately 200–500 response units of HLA-A*0201-[…] or HLA-A*0201-[…] peptide complex was attached to the CM5 sensor chip at a slow flow rate of 10 μl/min to ensure uniform distribution on the chip surface. […] For equilibrium analysis, 10 serial dilutions were prepared in duplicate for each sample and injected over the relevant sensor chips at 25 °C. TCR was injected over the chip surface using kinetic injections at a flow rate of 45 μl/min using HLA-A*0201-[…] as a negative control surface on flow cell 1. Results were analyzed using BIAevaluation^TM 3.1, Excel, and Origin 6.0 software. The equilibrium dissociation constant (KD) values were calculated assuming a 1:1 interaction by plotting specific equilibrium binding responses against protein concentrations followed by non-linear least square fitting of the Langmuir binding equation. For kinetics analysis, the kon and koff values were calculated assuming 1:1 Langmuir binding, and the data were analyzed using a global fit algorithm (BIAevaluation 3.1).

The target in data set [4] is altered peptide ligand of human telomerase reverse transcriptase 540-548 peptide on HLA-A*02:01 (human). Briefly: SPR, equilibrium binding; kinetics n/m (too fast to measure); data from (39); soluble, other.
Data set [5] deals with altered peptide ligand of human telomerase reverse transcriptase 540-548 (A2-ILA8T) peptide on HLA-A*02:01 (human). The data set is described as follows: SPR, equilibrium binding; data from (39); soluble, other.
Data set [6] has as its target altered peptide ligand of human telomerase reverse transcriptase 540-548 peptide on HLA-A*02:01 (human). Briefly: SPR, equilibrium binding; data from (16); soluble, other.
In data set [7] the target is altered peptide ligand of human telomerase reverse transcriptase 540-548 (A2-ILA8R) peptide on HLA-A*02:01 (human). The data set is described as follows: SPR, equilibrium binding at 25 °C, new data of this article; kinetics n/m (too fast to measure); much weaker than the index A2-ILA ([…] μM); soluble, other.
In data set [8] the target is altered peptide ligand of human telomerase reverse transcriptase 540-548 (A2-ILA8E) peptide on HLA-A*02:01 (human). The data set is described as follows: SPR, equilibrium binding; kinetics n/m; data from (39); extremely weak against the index A2-ILA ([…] μM); soluble, other.
Data set [9] concerns the target altered peptide ligand of human telomerase reverse transcriptase 540-548 peptide on HLA-A*02:01 (human). Briefly: SPR, equilibrium binding; kinetics n/m (too fast to measure); data from (39); soluble, other. This is another data set of the same source.
For data set [10] the target is unchanged. The data set is described as follows: SPR, equilibrium binding; data from (17); soluble, other.
The target in data set [11] is altered peptide ligand of human telomerase reverse transcriptase 540-548 (A2-ILA3G8R) peptide on HLA-A*02:01 (human). The data set is described as follows: SPR, equilibrium binding at 25 °C, new data of this article; soluble, other.
Data set [12] has as its target human telomerase reverse transcriptase peptide on HLA-A*02:01 (human). Briefly: van 't Hoff analysis of SPR affinities at 5-37 °C; soluble, other.
The target in data set [13] is altered peptide ligand of human telomerase reverse transcriptase 540-548 peptide on HLA-A*02:01 (human). The data set is described as follows: SPR, equilibrium binding; data from (17); soluble, other. This is another data set of the same source.
Setting [14] is: SPR BIAcore T200, ILA1 TCR injected over immobilised pMHC, 1:1 Langmuir global fit.

The values below come from PMC5247654, “Structural Mechanism Underpinning Cross-reactivity of a CD8^+ T-cell Clone That Recognizes a Peptide Derived from Human Telomerase Reverse Transcriptase” (The Journal of Biological Chemistry, 2016).

Read-outs that look alike come from different tables or passages of the source.

Broadly, the Kd is the free concentration of one partner at which half of the binding sites on the other are occupied at equilibrium, for simple one-to-one binding. Usually koff stands for the rate constant with which the complex falls apart. By kon is commonly meant the rate constant with which the complex forms.

As to ILAKFLHEL, the “apparent Tm (melting temperature)” value in data set [1] amounted to 58.8 °C. Moreover, the equilibrium dissociation constant (Kd) in data set [2] was more than 500 µM.
With ILAKFLHTL, the “apparent Tm (melting temperature)” value in [1] is 58.7 °C. In data set [2], the koff is 0.08 s⁻¹, the kon is 2200 M⁻¹ s⁻¹ and the dissociation constant Kd was 28 ± 5 µM.
On to ILALFLHWL, for which, in [2], the koff is 0.2 s⁻¹, the kon was 1700 M⁻¹ s⁻¹ and the Kd is 117 ± 6 µM.
Take ILAKFLYWL: in [2], the dissociation constant (Kd) was 82 ± 8 µM.
As for ILAKFLHWL, in [1], the “apparent Tm (melting temperature)” value came to 54.5 °C.
For the substance ILAKFLHYL, in data set [2], the Kd was 22.6 ± 2.1 µM.
On to ILGKFLHRL, for which, in data set [3] (setting [14]), the koff was 0.16 s⁻¹ and the kon amounted to 30000 M⁻¹ s⁻¹. In addition, the Kd in [3] was 1 ± 0.1 µM. For the same substance, in data set [1], the “apparent Tm (melting temperature)” value is 55.9 °C.
ILAKFLHRL had a Kd in [3] of 151 ± 8 µM. Also, in data set [1], the “apparent Tm (melting temperature)” value is 60.9 °C.
Take ILAKYLHWL: in [2], the koff is 0.32 s⁻¹, the kon is 1300 M⁻¹ s⁻¹ and the dissociation constant Kd was 242 ± 20 µM.
In the case of ILA1 TCR, the Kd in data set [4] is 22.6 µM; in [5], 28 µM; in data set [6] it was 117 µM; in [7], 151 µM; in [8], more than 500 µM; in data set [9], 82 µM. Also, the values for the Kd in data set [10], in data set [11] and in data set [13] were 242 µM, 1000 nM and 2500 nM, respectively. In data set [12], this substance had a TΔS of 5.86 kcal/mol.
Consider ILGKFLHWL, for which, in data set [1], the “apparent Tm (melting temperature)” value worked out at 49.8 °C. Besides, in [2], the koff is 0.05 s⁻¹, the kon was 16000 M⁻¹ s⁻¹ and the Kd was 3.7 ± 0.2 µM.
On to ILGKFLHTL, for which, in data set [1], the “apparent Tm (melting temperature)” value was 55.6 °C. In addition, in [2], the koff is 0.05 s⁻¹, the association rate constant (kon) is 19500 M⁻¹ s⁻¹ and the dissociation constant Kd was 2.5 ± 0.5 µM.
